Columns and labels:
[1] = tested on: PC3 prostate cancer cells; assay: Cell Titer Glo proliferation assay in PC3; assay type: cell-based, human; conditions: Cell Titer Glo, 72 h; Mean ± SEM, n ≥ 3; read-out: IC50 values in prostate cancer cell lines, PC3
In short: (§1)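 Cells plated at 1,000 cells/well and left at least 24 h, then exposed to compound for 72 h. Permeabilised with 0.1% Triton-X100, lysed with Cell Titer-Glo reagent, luminescence read; IC50 from dose-response curves. PC3 grown in F12K with 10% FCS, DU145 in MEM with 10% FCS and pyruvate.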

[2] = tested on: DU145 prostate cancer cells; assay: Cell Titer Glo proliferation assay in DU145; assay type: cell-based, human; conditions: 72 h, Mean ± SEM, n ≥ 3, read-out: IC50 values in prostate cancer cell lines, DU145
In short: as §1

[3] = tested on: subcutaneous SW620 xenograft tumors; assay: SW620 xenograft study in nude mice; assay type: in vivo; conditions: 20 mg/kg daily by intraperitoneal injection
Method: In even another exemplary study, anti-neoplasm potency of the constrained pyrrolidine sphingolipid-like compounds in xenograft tumor animal studies. Nude mice bearing subcutaneous SW620 xenograft tumors were treated daily with 10 mg/kg FTY720 or 20 mg/kg of compounds 5 or 15 by intraperitoneal injection. […] Furthermore, these compounds retain many of the beneficial abilities of FTY720, such as, for example water solubility, oral bioavailability, and anti-tumor activity but no longer trigger bradycardia. Thus, these compounds are ideal for medicaments and treatments for neoplasms.
SW620 and SW480 xenograft studies: For SW620 xenograft studies, two and one half million luciferase-expressing SW620 colon cancer cells suspended in PBS with 2% FCS are injected subcutaneously in the flank of 7 week old male nude mice (Charles Rivers Labs, Crl:NU(NCr)-Foxn1nu). When tumors reached 100 mm^3 in volume, mice are assigned to groups with matched average tumor volumes and animal weights. Four groups containing 7 mice are treated intraperitoneally with either vehicle (0.9% saline), 10 mg/kg FTY720, or 20 mg/kg compound 5 or compound 15. Tumor length and width are measured with calipers at 7 and 11 days of treatment. Tumor volume is calculated using the formula volume (mm^3)=length [mm]×(width [mm])^2×0.52. The average fold change in the volume of each tumor over time is shown.

[4] = tested on: fusion of LC3-positive autophagosomes with LAMP1-positive lysosomes; assay: Autophagosome-lysosome fusion in chloroquine-treated cells; assay type: cell-based
Method: It is known in the art that cells adapt to nutrient stress by increasing autophagic flux. However, autophagosome-lysosome fusion reactions depend upon […] release via TRPML1 channels that are activated by PI(3,5)P2. […] Chloroquine (CQ) is molecule that stabilizes the transient autophagosomes. Cells were treated with CG to stabilize autophagolysosomes and subsequently treated with FTY720, SH-BC-893, or YM201636. […] Phosphatidylinositol 5-Phosphate (PI(5)P) is essential for autophagosome biogenesis upon glucose depletion. PI(5)P is produced by dephosphorylating PI(3,5)P2, and thus PI(5)P might also be mis-localized in SH-BC-893-treated cells, and thus also contributing to the disruption of autophagosome formation. […] Thus, SH-BC-893 inhibited both autophagosome formation and degradation. As a control, Vac14 over-expression limited vacuolation (FIGS. 55F, 61F, and 62B) and rescued autophagic flux in SH-BC-893-treated cells (FIGS. 61A, 61B, 61D and 61E).
(§2) Light Microscopy: Brightfield and epifluorescence microscopy were conducted using a Nikon TE2000-S fluorescence microscope; confocal microscopy was performed on a Zeiss LSM780 confocal microscope or Nikon Eclipse Ti spinning disk confocal microscope. […] Co-localization was determined using JACoP plugin in ImageJ software. Macropinocytosis was measured after 16 h incubation in serum-free DMEM. p53−/−; LSL-K-RasG12D MEFs before (LSL) or after (KRasG12D) introduction of Cre were serum starved for 16 h and then treated with macropinocytosis inhibitor 5-(N-ethyl-N-isopropyl) amiloride (EIPA, 75 μM) for 1 h or SH-BC-893 for 6 h. Oregon Green dextran (Life Technologies, cat #D7173) (1 mg/mL) and Lysotracker Red (Life Technologies, cat #L-7525) (1:2,000 dilution) were added for 30 min and live cells were evaluated on the spinning disc confocal microscope. […]

[5] = tested on: K-RasG12D expressing cells; assay: Macropinosome fusion with lysosomes; assay type: cell-based; conditions: dextran
Excerpt: In cells with activated Ras, macropinocytosis might also confer resistance to nutrient transporter down-regulation. However, PI(3,5)P2 is also required for macropinosome degradation. […] Macropinosomes that fail to fuse with lysosomes would not be able to supply nutrients, such as amino acids. Thus, by disrupting PIKfyve localization, sphingolipid-like compounds limit access to lysosome-derived nutrients at the same time it down-regulates transporters for amino acids and glucose.
as §2

Structure (SMILES)	IC50 [1]	IC50 [2]	tumor growth of SW620 xenografts [3]	fusion of LC3-positive autophagosomes with LAMP1-positive lysosomes [4]	macropinosome fusion with lysosomes [5]
CCCCCCCCc1ccc([C@H]2CCN[C@@H]2COC)cc1.Cl [Compound 15]	6.3 ± 0.3 µM	5.9 ± 0.3 µM	inhibited tumor growth	–	–
Nc1ccc(C(=O)Nc2cccc(-c3nc(N4CCOCC4)c4oc5ncccc5c4n3)c2)cn1 [YM201636, reference compound]	–	–	–	reduced fusion	dramatically reduced macropinosome fusion with lysosomes

From US10995068B2, “Synthetic sphingolipid-like molecules, drugs, methods of their synthesis and methods of treatment” (The Regents of the University of California, priority 2015, dated 2021)
